pIC50: −log10 of the molar value. Like-named read-outs stand apart in the source and are kept apart here.
Experiments:
AKT phosphorylation = AKT phosphorylation in cells (macrophages) isolated from IPF BALF, MSD assay (Example 1); type: cell-based; conditions: Homo sapiens, Macrophage, 25 min; macrophages isolated from n=3 IPF BALFs; 25 minutes incubation; geometric mean (95% CI 0.28-1.08 nM); read-out: IC50 for inhibition of AKT phosphorylation
From the text: Phosphorylation of AKT is widely accepted as an indication of PI3-kinase activity, and is utilised here to obtain an IC50 for the effect of 2,4-difluoro-N-{2-(methyloxy)-5-[4-(4-pyridazinyl)-6-quinolinyl]-3-pyridinyl}benzenesulfonamide on primary human lung fibroblasts isolated from the IPF patients, in addition to macrophages isolated from IPF bronchoalveolar lavage (BALF).
In similar experiments, inhibition of AKT phosphorylation by 2,4-difluoro-N-{2-(methyloxy)-5-[4-(4-pyridazinyl)-6-quinolinyl]-3 pyridinyl}benzenesulfonamide is assessed in cells isolated from IPF BALF. Briefly, BAL cells are resuspended in 0.1% BSA RPMI media to a cell provide a cell count of 5.7×10^4-8.3×10^4 cells per well. BAL cells are added to a 96 well plate and incubated with a range of 2,4-difluoro-N-{2-(methyloxy)-5-[4-(4-pyridazinyl)-6-quinolinyl]-3 pyridinyl}benzenesulfonamide (0.1% DMSO and 0.1% BSA final concentration in the assay). After 25 minutes incubation at 37° C., 5% CO2 the plate is spun for 5 min at 1600 rpm. The supernatants are decanted and 40 μl of phosphosafe lysis buffer containing protease inhibitors is added to each well. The plate is then snap frozen in liquid nitrogen and stored at −80° C. prior to further analysis. Following thawing on ice, cell lysates are transferred onto phospho Akt, total Akt Meso Scale Discovery (MSD) capture plates and processed as described above.

[1] = test system: primary human lung fibroblasts differentiated into myofibroblasts; assay: Pro-collagen accumulation (hydroxyproline by HPLC) in supernatants of TGFβ differentiated myofibroblasts; type: cell-based; conditions: for inhibition at 0.003 µM / inhibition at 0.03 µM: Homo sapiens, Fibroblast
Protocol: Cultured non-IPF cell lines (as described in section 3.1.2) were used to study pro-collagen accumulation in cell culture supernatants, following TGF6 induced myofibroblast differentiation.
Cells were seeded at 100,000 cells per well in 12-well plates (NUNC #150628) in 1 mL complete DMEM and incubated until they reached 100% confluence (4-5 days). Medium was removed from the confluent cells and replaced with 1 mL pre-incubation medium (DMEM containing 4 mM glutamine, 50 μg/mL ascorbic acid, 0.2 mM proline and 0.4% FBS) and incubated for a further 24 hours. Fresh pre-incubation medium was added to 3 wells and immediately collected for analysis in order to determine background level (T0) of hydroxyproline present in the culture medium at the start of the incubation period. […]
Following 24 hours serum starvation, fibroblasts were stimulated with TGFβ1 (1 ng/mL, 24 hours) (R&D #101-B1) to induce myofibroblast differentiation. Subsequently TGFβ1 was either removed or replenished (by complete serum free media change±TGFβ, 1 ng/ml) and 2,4-difluoro-N-{2-(methyloxy)-5-[4-(4-pyridazinyl)-6-quinolinyl]-3 pyridinyl}benzenesulfonamide (final concentration 3 nM or 30 nM, in 0.1% DMSO) added. Dilutions of 2,4-difluoro-N-{2-(methyloxy)-5-[4-(4-pyridazinyl)-6-quinolinyl]-3 pyridinyl}benzenesulfonamide were prepared from a stock of 0.03M by serial 10-fold dilution in 0.1% DMSO and a further 1000-fold dilution. Differentiated myofibroblast cultures were incubated for further 24 and 48 hours at 37° C., 100% humidity, 10% CO2. See FIG. 1 and FIG. 2 for schematic of the experimental regimen.
At the end of each incubation time point cell supernatant was collected and frozen at −80° C. The cell layer was detached by incubating with 250 μL of 0.25% trypsin-EDTA for 5 minutes and a 1 mL suspension was made in DMEM. Cell counts were performed on the cell suspension using Sceptre […] sensor.
The cell supernatants were allowed to thaw at room temperature and proteins were precipitated overnight in 67% (v/v) ethanol at 4° C.
Precipitated proteins were recovered by vacuum filtration onto Durapore polyvinylidene difluoride (PVDF) membrane filters (pore size 0.45 μm) (type HV, Millipore Ltd., UK; # HVLP02500) and the adhering protein was washed twice with 1.5 mL ethanol (67% v/v). Filters with adherent protein were transferred to Pyrex hydrolysis tubes containing 2 mL 6M HCl. Ethanol-insoluble fractions were then hydrolysed at 110° C. for 16 h and the samples were decolourised by mixing with approx. 70 mg of charcoal and filtered onto Durapore membrane filters (pore size 0.65 μm) (type DA, Millipore Ltd., UK; DVPP02500). Aliquots (100 μl) of decolourised hydrolysate were transferred to 1.5 mL centrifuge tubes and evaporated to dryness using speed vac concentrator (Savant SPD 131DDA, Thermo Electron Corporation, Cambridge, UK).
Hydroxyproline accumulation in cell culture supernatants is used as a measure of pro-collagen production. Hydroxyproline represents approximately 12% of the primary sequence of pro-collagen and is essential for the formation of the collagen triple helix. Hydroxproline is not present in significant levels in any other proteins. Levels of hydroxyproline in cell culture hydrolysates was quantified by reverse-phase high performance liquid chromatography (HPLC) following derivitisation with 7-chloro-4-nitrobenzo-oxa-1; 3-diazole (NBD-CI) (Sigma; #17239-0050).
Hydroxyproline Standard: Standard samples of Trans-4-hydroxy-L-proline (PHPRO) Sigma; #H5534) are stored frozen at −20° C. in 10 μL (250 μM) aliquots. A 10 μL aliquot was diluted in 990 μL Milli-Q water (Milli-Q Plus; Millipore Ltd., UK) and used as standard. The final amount of Hydroxyproline (Hyp) standard loaded onto the column was 50 pmoles.
Samples: Milli-Q water (100 μL) was added to the dried aliquot of hydrolysate and left to rehydrate at 4° C. overnight. […]

## COc1ncc(-c2ccc3nccc(-c4ccnnc4)c3c2)cc1NS(=O)(=O)c1ccc(F)cc1F [2,4-difluoro-N-{2-(methyloxy)-5-[4-(4-pyridazinyl)-6-quinolinyl]-3-pyridinyl}benzenesulfonamide]
AKT phosphorylation
  pIC50: 9.27
[1]; 24 h, line 0110 (A), TGFβ removed, 3 nM, 24 hour, read-out: mean percent inhibition of TGFβ induced pro-collagen production
  inhibition at 0.003 µM: 31.6%
[1]; 24 h, line 0110 (A), TGFβ removed, 30 nM, 24 hour, read-out: mean percent inhibition of TGFβ induced pro-collagen production
  inhibition at 0.03 µM: 60.8%
[1]; 24 h, line 0610 (B), TGFβ removed, 3 nM, 24 hour, read-out: mean percent inhibition of TGFβ induced pro-collagen production
  inhibition at 0.003 µM: 26.2%
[1]; 24 h, line 0610 (B), TGFβ removed, 30 nM, 24 hour, read-out: mean percent inhibition of TGFβ induced pro-collagen production
  inhibition at 0.03 µM: 56.8%
[1]; 24 h, line 0610 (B), TGFβ replenished, 3 nM, 24 hour, read-out: mean percent inhibition of TGFβ induced pro-collagen production following replenishment of TGFβ
  inhibition at 0.003 µM: 29.1%
[1]; 24 h, line 0610 (B), TGFβ replenished, 30 nM, 24 hour, read-out: mean percent inhibition of TGFβ induced pro-collagen production following replenishment of TGFβ
  inhibition at 0.03 µM: 45.4%
[1]; 48 h, line 0110 (A), TGFβ removed, 3 nM, 48 hour, read-out: mean percent inhibition of TGFβ induced pro-collagen production
  inhibition at 0.003 µM: 48.1%
[1]; 48 h, line 0110 (A), TGFβ removed, 30 nM, 48 hour, read-out: mean percent inhibition of TGFβ induced pro-collagen production
  inhibition at 0.03 µM: 64%
[1]; 48 h, line 0110 (A), TGFβ replenished, 3 nM, 48 hour, read-out: mean percent inhibition of TGFβ induced pro-collagen production following replenishment of TGFβ
  inhibition at 0.003 µM: 6.3%
[1]; 48 h, line 0110 (A), TGFβ replenished, 30 nM, 48 hour, read-out: mean percent inhibition of TGFβ induced pro-collagen production following replenishment of TGFβ
  inhibition at 0.03 µM: 35.2%
[1]; 48 h, line 0610 (B), TGFβ removed, 3 nM, 48 hour, read-out: mean percent inhibition of TGFβ induced pro-collagen production
  inhibition at 0.003 µM: 35.6%
[1]; 48 h, line 0610 (B), TGFβ removed, 30 nM, 48 hour, read-out: mean percent inhibition of TGFβ induced pro-collagen production
  inhibition at 0.03 µM: 59.6%
[1]; 48 h, line 0610 (B), TGFβ replenished, 30 nM, 48 hour, read-out: mean percent inhibition of TGFβ induced pro-collagen production following replenishment of TGFβ
  inhibition at 0.03 µM: 37.7%
[1]; line 0110 (A), TGFβ replenished, 3 nM, 24 hour
  mean percent inhibition of TGFβ induced pro-collagen production following replenishment of TGFβ: No inhibition
[1]; line 0110 (A), TGFβ replenished, 30 nM, 24 hour
  mean percent inhibition of TGFβ induced pro-collagen production following replenishment of TGFβ: No inhibition
[1]; line 0610 (B), TGFβ replenished, 3 nM, 48 hour
  mean percent inhibition of TGFβ induced pro-collagen production following replenishment of TGFβ: No inhibition

Source: US20160067247A1, “NOVEL USE” (GlaxoSmithKline Intellectual Property (No.2) Limited, priority 2012, published 2016)
